In US20070259865A1, “Agent for Promoting the Recovery from Dysfunction After the Onset of Central Neurological Disease” (Astellas Pharma Inc., priority 2004, published 2007):

Assays:
[1] = test system: cerebral infarction rat model; assay: Beam-walking test, walking function in cerebral infarction rat model; type: in vivo; settings: vs. control group; male spontaneous hypertension rats after MCA occlusion; Compound A 5 and 10 mg/kg; D-amphetamine 0.75 and 1.5 mg/kg intraperitoneally; FIGS. 1-3 (a)
Excerpt: (§1) Blood Flow Metab. 8, 474-485, 1988.

[2] = test system: cerebral infarction rat model; assay: Foot-fault test, walking function in cerebral infarction rat model; type: in vivo; settings: vs. control group; forepaw on the disordered side; Compound A 5 and 10 mg/kg; D-amphetamine 0.75 and 1.5 mg/kg intraperitoneally; FIGS. 1-3 (b)
Excerpt: as §1

[3] = test system: cerebral infarction rat model; assay: Staircase test, forepaw function in cerebral infarction rat model; settings: vs. control group, Compound A 5 mg/kg orally five times per week, D-amphetamine 1.5 mg/kg intraperitoneally twice per week, to week 6; for forepaw dysfunction, number of displaced pellets in the staircase test: FIG. 4 (a); for forepaw dysfunction, number of eaten pellets in the staircase test: FIG. 4 (b)
[4] = test system: spontaneous hypertension rats; assay: Effect on the circulatory system (heart rate); type: in vivo, rat
Procedure: After a cannula was inserted into the common carotid artery, heart rates were monitored. […] For the control group, physiological saline was administered intraperitoneally and the measurement was similarly conducted. Statistical analysis was conducted by one-way repeated-measures analysis of variance.

[5] = test system: cerebral infarction rat model; settings: D-amphetamine 0.75 and 1.5 mg/kg, FIG. 5

| SMILES | improvement effect on gait function in the beam-walking test (score) [1] | improvement effect on gait function in the foot-fault test (% foot-faults) [2] | forepaw dysfunction, number of displaced pellets in the staircase test [3] | forepaw dysfunction, number of eaten pellets in the staircase test [3] | effect on heart rate ([4]; rat, in vivo) | effect on the number of steps (locomotor activity, excitatory effect) [5] | effect on heart rate ([4]; recorded until 4 hours after administration, Compound A orally, D-amphetamine intraperitoneally, vs. basal value, FIG. 6) |
| --- | --- | --- | --- | --- | --- | --- | --- |
| CNCCC(Oc1ccc(C(F)(F)F)cc1)c1ccccc1 (centres unmarked) [fluoxetine, Fluoxetine] | no evident improvement effect | no evident improvement effect | – | – | – | – | – |
| Cl.Fc1ccc(OC[C@@H]2CNCCO2)c2c1CCC2 [Compound A, (S)-2-[[(7-Fluoro-4-indanyl)oxy]methyl]morpholine hydrochloride] | significant improvement effect | significant improvement effect | significant improvement effect | significant improvement effect | no effect on heart rate | – | – |
| C[C@H](N)Cc1ccccc1 [D-amphetamine] | – | – | the effect was not significant | the effect was not significant | – | remarkable increase in the number of steps | significant accentuation of heart rate |
